Test results as given in patent US9339476B2, “Implantable meshes for controlling the movement of fluids” (Arch Biosurgery, Inc., priority 2013, dated 2016).

Key:
[1] = test system: second 4 mm diameter biopsy punch lesion in the right lobe of the liver; test: Rat liver biopsy punch model, hemostasis in the presence of anticoagulant (heparin); type: in vivo, Sprague Dawley rats
Procedure: (§1) To determine whether hemostasis could be achieved in the presence of anticoagulant, heparin was then administered to the animal at a dose of 500 IU per kg body weight injected directly into the portal vein. Two minutes after heparin injection, a second 4 mm diameter biopsy punch lesion was made adjacent to the first lesion in the right lobe of the liver and 0.5 ml of a 3% aqueous RADA4 peptide solution was again added to the lesion.

[2] = test system: 4 mm diameter biopsy punch lesion of the liver's right lobe with brisk bleeding; test: Rat liver biopsy punch model, hemostasis; type: in vivo, Sprague Dawley rats
Procedure: (§2) A self-assembling peptide having the sequence RADARADARADARADA (RADA4; SEQ. ID. NO: 1) acetate salt was reconstituted in sterile water to 3%. The material was stored at […] in a cooler with cold pack over it until brought to the study facility. Lyo cakes of 3 vials were crushed using a spatula and then combined in 1 vial. The combined content was reconstituted with 1 mL volume of sterile water for injection. The lyophilized formulation went in solution easily in 1-2 minutes and was vortexed for 30 seconds before use.
(§3) Four female Sprague Dawley rats each weighing 300-320 g were anesthetized with a mixture of xylaxine/ketamine. When a suitable plane of anesthesia was reached, a ventral midline incision was made in the abdomen allowing for visualization and manipulation of the liver's right lobe. Further manipulation to expose the portal vein was performed to allow for withdrawal of 1 mL of blood for measurement of blood activated clotting time (ACT).
A wooden spatula was then placed behind the right lobe of the liver and a 4 mm diameter biopsy punch was used to remove a full thickness 4 mm diameter section of the liver resulting in a lesion with brisk bleeding.
Immediately, 0.5 mL of a 3% aqueous solution of pre-formulated RADA4 peptide reconstituted in sterile water was applied to the biopsy site using a 22½ gauge needle.

[3] = Reconstitution of lyophilized formulation in sterile water for injection; type: physicochemical; conditions: lyo cakes of 3 vials combined, reconstituted with 1 mL sterile water for injection
Procedure: as §2

[4] = test system: blood activated clotting time (ACT); test: Blood activated clotting time (ACT); type: in vivo, Sprague Dawley rats; conditions: 8 minutes following heparin injection (500 IU/kg, portal vein); baseline approximately 110 seconds
Procedure: as §3, §1

Substance | time until bleeding stopped ([1]; 0.5 ml of 3% aqueous solution, lesion made two minutes after heparin 500 IU per kg into the portal vein) | producing hemostasis (overall outcome) ([1]; 3% aqueous solution, presence of clinically significant anticoagulation) | stability of hemostasis at later assessment ([1]; at 10 minutes, after heparin 500 IU per kg) | time until bleeding stopped completely ([2]; 0.5 mL of 3% aqueous solution applied to 4 mm liver biopsy site, no anticoagulant) | producing hemostasis (overall outcome) ([2]; 3% aqueous solution, absence of clinically significant anticoagulation) | stability of hemostasis at later assessment ([2]; 10 minutes following application, no anticoagulant) | time for lyophilized formulation to go in solution [3] | ACT measurement [4]
RADARADARADARADA [RADA4] | ≤ 30 s | successful | stable | ≤ 30 s | successful | stable without further bleeding | 1 to 2 min | –
heparin | – | – | – | – | – | – | – | greater than 1,300 seconds
